One compound from patent US20200155575A1, “PHARMACEUTICAL COMPOSITION AND METHODS” (priority 2014, published 2020) can be followed below.

The nature of this data set: Solubility in pharmaceutically acceptable carriers/excipients. The data set is classed as physicochemical. The method, then:
The solubility of (8R,9S,10R,13S,14S,17S)-10,13-dimethyl-3-oxo-1,2,6,7,8,9,11,12,14,15,16,17-dodecahydrocyclopenta[a]phenanthren-17-yl tridecanoate was determined in the solvents (typical pharmaceutical carriers) listed below.

Turning to `CCCCCCCCCCCCC(=O)O[C@H]1CC[C@H]2[C@@H]3CCC4=CC(=O)CC[C@]4(C)[C@H]3CC[C@]12C` [testosterone tridecanoate, (8R,9S,10R,13S,14S,17S)-10,13-dimethyl-3-oxo-1,2,6,7,8,9,11,12,14,15,16,17-dodecahydrocyclopenta[a]phenanthren-17-yl tridecanoate], the “Solubility mg/g at ~20-23° C.” value reads like this: (solvent Benzyl Alcohol) 322 mg/g; (solvent Benzyl Benzoate) 223 mg/g; (solvent Castor Oil) 55 mg/g; (solvent Corn glycerides -Maisine) 77 mg/g; (solvent Corn oil) 35 mg/g; (solvent Cremophor RH40) 10 mg/g. Further, the “Solubility mg/g at ~20-23° C.” value (solvent Ethanol) was 27 mg/g; the “Solubility mg/g at ~20-23° C.” value (solvent Fatty Acid -Oleic acid) came to 114 mg/g; the “Solubility mg/g at ~20-23° C.” value (solvent Medium chain glycerides-Capmul) was 68 mg/g; the “Solubility mg/g at ~20-23° C.” value (solvent Olive Oil) came to 38 mg/g; the “Solubility mg/g at ~20-23° C.” value (solvent Peppermint Oil) is roughly 200 mg/g.
